Test results from paper PMC6915728 (Nature Communications, 2019).
Where two headings read alike, the source gives them in different places.

Key:
[1] = test system: bacterial species in which the gene showed activity; conditions: cited from earlier work
[2] = test system: E. coli BW25113 ΔmlaD; assay: MIC, serial broth dilution, mlaD knockout strain vs wild type; format: cell-based, Escherichia coli
Experimental: What could be the mechanism behind the antagonistic action of this pathway on membrane- versus intracellular-targeting AMPs? Since MlaD is part of a protein complex, it may lead to a loss-of-function effect upon overexpression[41],[42]. To test this, we asked whether overexpression and deletion of mlaD cause similar changes in susceptibility to a representative set of membrane- and intracellular-targeting AMPs.
Minimum inhibitory concentrations (MIC) were determined with a standard serial broth dilution technique with a minor modification. Specifically, instead of a two-fold dilution series, smaller AMP concentration steps were used (typically 1.2-fold) for two reasons. […] Second, gene overexpressions caused typically only small changes in the MICs of AMPs and therefore higher resolution was required. The protocol was as follows. From a stock solution of an AMP, 12-steps serial dilution was prepared in fresh MS medium in 96-well microtiter plates. Each AMP was represented in 11 different concentrations (3 wells per AMP concentration per strain). Three wells contained only medium to check the growth in the absence of AMP. After overnight growth in MS medium supplemented with chloramphenicol, bacterial strains were diluted 20-fold into fresh MS medium and grown until the cell density reached OD600 ~1. Cells were induced by 100 µM of IPTG and incubated for 1 h at 30 °C with continuous shaking at 300 rpm. Following incubation, approximately half-million cells were inoculated into the wells of the 96-well microtiter plate with a 96‐pin replicator. We used three independent replicates for each strain and the corresponding control. Two rows in the 96-well plate contained only MS medium in order to obtain the background OD value of the medium. Plates were incubated at 30 °C with continuous shaking at 300 rpm. After 20–24 h of incubation, OD600 values were measured in a microplate reader (Biotek Synergy 2).
A mlaD knockout strain of E. coli BW25113 carrying a kanamycin resistance cassette in the position of the gene was selected from the KEIO collection. The resistance marker was removed using plasmid-borne (pFT-A) expression of FLP recombinase leading to excision of the kanamycin resistance cassette. Cassette excision was verified by a polymerase chain reaction using the primers mlaD_del_ver_Fw (5′- […]) and mlaD_del_ver_Rev (5′- […]).
Supplementary Figure 13. […] The bacterial susceptibility of the mutant to AMPs was tested by MIC determination. Growth is shown relative to growth in the absence of the corresponding AMP. The blue line represents the mlaD knockout strain and the orange line represents the control strain (wild-type E. coli BW25113). Error bars indicate the standard errors based on three biological replicates. Source data are provided in the Source Data file.

[3] = test system: AMP-evolved E. coli lines; assay: Cross-resistance / collateral sensitivity: relative MIC change of 38 laboratory-evolved AMP-resistant lines vs parental strain; format: cell-based, Escherichia coli; conditions: AMP-adapted line PR39_10; measured here
Description: Here, we extended this dataset by measuring susceptibility changes of the same evolved lines to four additional AMPs using identical protocols to represent AMPs from all four clusters (Supplementary Fig. 15a, see also Methods). Overall, the resulting dataset of susceptibility profiles provides a comprehensive map of cross-resistance and collateral sensitivity between AMPs representing various modes of action.
To characterize the cross-resistance of the 38 E. coli lineages we obtained relative MIC changes that are, the MIC values of the evolved lines compared to these of the parental strain, from two data sources. First, we used already measured relative MIC changes from Spohn et al. Supplementary data 4[20]. […] Second, we extended this dataset by measuring the relative MIC changes of the same evolved lines to four additional AMPs using identical protocol. […] In this way, AMPs from each cluster were represented in the dataset.
Supplementary Figure 15. […] Relative change in MIC was determined for each evolved line by comparing its MIC to the ancestral cell line (control). […] CAP18-adaped lines were not included in the analysis because CAP18 is known as a membrane-targeting AMP in the literature. c, Cross-resistance interactions are enriched between membrane-targeting AMPs that are in the same chemical-genetic clusters (i.e. AMP pairs within C1 and within C2 clusters) (Significant difference: ** P = 0.0082 from two-sided Fisher’s exact test, n = 61 and 62 for within cluster and between clusters, respectively). […] Source data are provided as a Source Data file.

[4] = Bordetella pertussis, ref http://www.ncbi.nlm.nih.gov/pmc/articles/PMC4136009/
[5] = Staphylococcus aureus, ref http://onlinelibrary.wiley.com/doi/10.1111/j.1365-2958.2007.05986.x/epdf

| Sequence | Gene that modulates bacterial susceptibility to the AMP [1, 4] | Gene that modulates bacterial susceptibility to the AMP [1, 5] | Average relative change in MIC ([2]; mlaD deletion strain vs control E. coli BW25113, average of 3 replicates) | Relative change in MIC (MIC of the AMP-adpated line / MIC of the ancestral strain) [3] | Gene that modulates bacterial susceptibility to the AMP ([1]; Enterobacteriaceae, ref https://www.ncbi.nlm.nih.gov/pmc/articles/PMC3264287/, https://onlinelibrary.wiley.com/doi/full/10.1111/j.1348-0421.2010.00238.x, https://jb.asm.org/content/180/15/4002.full) | Gene that modulates bacterial susceptibility to the AMP ([1]; Enterococcus faecalis, ref http://www.jbc.org/content/279/51/52820.full.pdf) | Gene that modulates bacterial susceptibility to the AMP ([1]; Enterococcus faecalis, ref https://www.ncbi.nlm.nih.gov/pmc/articles/PMC2976315/) | Gene that modulates bacterial susceptibility to the AMP ([1]; Group A Streptococcus pyogenes, ref http://www.ncbi.nlm.nih.gov/pmc/articles/PMC3241932/pdf/nihms218493.pdf) | Gene that modulates bacterial susceptibility to the AMP ([1]; Neisseria meningitidis, gene siaC, ref http://jb.asm.org/content/191/12/3861.full.pdf+html) | Gene that modulates bacterial susceptibility to the AMP ([1]; Neisseria meningitidis, gene siaD, ref http://jb.asm.org/content/191/12/3861.full.pdf+html) | Gene that modulates bacterial susceptibility to the AMP ([1]; Proteus mirabilis, ref http://www.ncbi.nlm.nih.gov/pmc/articles/PMC517467/pdf/0713-04.pdf) | Gene that modulates bacterial susceptibility to the AMP ([1]; Pseudomonas aeruginosa, ref http://portal.research.lu.se/portal/files/2657079/623699.pdf) | Gene that modulates bacterial susceptibility to the AMP ([1]; Salmonella typhimurium, Escherichia coli, ref https://www.ncbi.nlm.nih.gov/pmc/articles/PMC3037666/, https://www.ncbi.nlm.nih.gov/pmc/articles/PMC4808223/) | Gene that modulates bacterial susceptibility to the AMP ([1]; Salmonella typhimurium, ref http://www.sciencedirect.com/science/article/pii/S1368764616300024) | Gene that modulates bacterial susceptibility to the AMP ([1]; Staphylococcus aureus, ref http://aac.asm.org/content/48/12/4673.full.pdf+html) | Gene that modulates bacterial susceptibility to the AMP ([1]; Streptococcus pyogenes, ref http://www.jbc.org/content/279/51/52820.full.pdf) | Gene that modulates bacterial susceptibility to the AMP [1] | Average relative change in MIC ([2]; mlaD deletion strain relative to control (E. coli BW25113), 3 replicates each, from optical density values of serial dilution plates, AMP in µg ml-1) |
| --- | --- | --- | --- | --- | --- | --- | --- | --- | --- | --- | --- | --- | --- | --- | --- | --- | --- | --- |
| ILPWKWPWWPWRR [IND, Indolicidin, antimicrobial peptide from bovine neutrophils; cluster C3] | lgmA, IgmB, IgmC | apsS | 0.71 | 1.3 | – | – | – | – | – | – | – | – | – | – | – | – | – | – |
| LLGDFFRKSKEKIGKEFKRIVQRIKDFLRNLVPRTES [LL37, LL-37 human cathelicidin, human host-defense peptide; disrupts cell membrane; cluster C2] | lgmA, IgmB, IgmC | apsS | – | – | ompT | sprE | gelE | emm1 | siaC | siaD | zapA | lasA, IsaB | amiA, amiC | waaY | aur (aureolysin) | speB | pgtE and pla | 2.25 |
